Test results: patent publication EP1933809B1, “COMPOSITIONS FOR NASAL DELIVERY” (YISSUM RESEARCH DEVELOPMENT COMPANY OF THE HEBREW …, priority 2005, dated 2007)

Columns and labels:
nasal mucosa = assay: Transport of fluorescent probe across nasal mucosa after in vivo administration, CLS microscopy (Example 15); details: composition of the invention with 0.05% Rhodamine B, 100µL to the right nostril of rats, 1/2 hour
Protocol: A stock solution of Rhodamine B (2mg/mL) was prepared in water. 50mg of phospholipid were dissolved in 200 mg ethanol. […] The composition is stirred for additional 5 min. The composition is described in Table IV.

Female Balb/c mice = assay: Writhing test in mice, writhing induced by IP acetic acid (Example 13); format: in vivo
Protocol: Experiments 1: The experiments were carried out on Female Balb/c mice (21-26g). Two experimental groups were used: control (untreated) (n=6) and treated group (n=6). […] Half an hour after nasal application, each animal in treated and control groups was IP administered with acetic acid 0.6% (10 ml/kg) and individually housed in cage with a smooth flat floor. Antinociception effect was recorded by counting the number of writhes 5 minutes after injection of acetic acid for period of 10 minutes. A writhe is indicated by abdominal constriction and stretching of at least one hind limb.
Experiment 2: The experiment was carried out on Female Balb/c mice (21-26g). Two experimental groups were used: control (untreated) (n=6) and treated group (n=6). […] Immediately after nasal application (t=0), each animal in treated and control groups was IP administered with acetic acid 0.6% (10 ml/kg) and individually housed in cage with a smooth flat floor. Antinociception was recorded by counting the number of writhes 5 minutes after injection of acetic acid for period of 10 minutes.
Experiment 3: The experiments were carried out on Female Balb/c mice (21-26g). Three experimental groups were used: control (untreated) (n=4), mice intranasally administered with the Diazepam IN vesicular composition (2.8µl in each nostril = diazepam dose of 5mg/kg animal) (n=4), and mice subcutaneously administered with the Diazepam solution 0.125 % at dose of 5mg/kg animal (n=4). […] Simultaneously, each animal in treated and control groups was IP administered with acetic acid 0.6% (10 ml/kg) and individually housed in cage with a smooth flat floor. Antinociception was recorded by counting the number of writhes 5 minutes after injection of acetic acid for period of 10 minutes.

Plasmodium berghei anka = assay: Treatment and prophylaxis of malaria in infected mice, model of cerebral malaria (Example 12); format: in vivo; details: 10mg DHA/kg/day, ICR female mice; for mice survived: treatment regimen (from day 2 after infection, 4 days)
Protocol: Experiments were carried out in vivo in ICR female mice infected with 10^6 erythrocytes parasitized Plasmodium berghei anka, a model of cerebral malaria with striking similarities to the human disease. Infections were monitored using giemsa-stained thin blood smears prepared from tail blood. The animals were treated under isoflurane anesthesia with 10mg DHA/kg/day in a two divided daily doses by two dosage regimens: prophylaxis regimen- starting at 2 days before the infection for a total of 6 days; treatment regimen- starting on day 2 after infection (parasitemia first detected) for a total of 4 days. Mice were either treated by the intranasal administration or by the i.p. injection containing the same DHA doses. Controls included placebo (delivery carrier only) and untreated infected animals. Experiments were conducted in accordance with institutional guidelines for animal care.

CCN(CC)c1ccc2c(-c3ccccc3C(=O)O)c3ccc(=[N+](CC)CC)cc-3oc2c1.[Cl-] [rhodamine B, Rhodamine B]
transport across the nasal mucosa (nasal mucosa): efficiently delivered

CN1C(=O)CN=C(c2ccccc2)c2cc(Cl)ccc21 [diazepam, 7-chloro-1,3-dihydro-1-methyl-5-phenyl-2H-1,4-benzo-diazepin-2-one]
writhing episodes (number of writhes) (Female Balb/c mice; Experiment 1: intranasal vesicular composition, 5mg/kg, 0.5 h before acetic acid injection, versus untreated control): efficiently prevented writhing episodes | writhing episodes (number of writhes) (Female Balb/c mice; Experiment 2: intranasal vesicular composition, 5mg/kg, simultaneously with acetic acid injection, versus untreated control): efficient in treating writhing episodes | writhing episodes (number of writhes) (Female Balb/c mice; Experiment 3: intranasal vesicular composition 5mg/kg versus subcutaneous diazepam solution 5mg/kg, simultaneously with acetic acid injection): significantly more efficient in treating writhing episodes as compared to the same dose of the drug administered subcutaneously

C[C@H]1[C@@H](O)O[C@@H]2O[C@@]3(C)CC[C@H]4[C@H](C)CC[C@@H]1[C@@]24OO3 [DHA, dihydroartemisinin]
mice in which parasites appeared (Plasmodium berghei anka; prophylaxis regimen, i.p. injection): 74% | mice survived (Plasmodium berghei anka; i.p. injection): 19% | mice survived (Plasmodium berghei anka; intranasal): 75%
